Laboratory results: patent US12053507B2, “Combination therapies for inhibiting sprout angiogenesis in the treatment of cancers” ([…] OF PHARMACY, LLC, priority 2010, dated 2024)
“Also recorded” adds a separate entry of the source.

What was measured:
[1] = tested on: VEGF; conditions: colorectal cancer; in combination with standard Saltz regime of irinotecan, 5-fluorouracil, and leucovorin; cited from earlier work
[2] = tested on: human dermal microvascular endothelial cells (HDMEC); assay: microcarrier in vitro 3D sprout angiogenesis assay of HDMEC in fibrin gel; assay type: cell-based
Method: Human dermal microvascular endothelial cells (HDMEC) were isolated from human neonatal foreskins. Briefly, after initial harvest from minced trypsinized human foreskins, microvascular endothelial cells were further purified on a PERCOLL® density gradient. […] HDMEC were cultured on collagen type 1 coated tissue culture flasks in EGM (endothelial cell growth medium) consisting of EBM supplemented with 10 ng/ml epidermal growth factor, 0.4% bovine brain extract, 17.5 microg/ml dibutyryl cyclic AMP, and 1 microg/ml hydrocortisone in the presence of 30% normal human serum. […] All experiments were done with HDMEC below passage 10. Bovine aortic endothelial cells (BAEC) were obtained from BioWhittaker, Inc. (Walkersville, MD) and cultured according to manufacturer's instruction. BAEC between passage 4 and 8 were used for experiments.
Gelatin-coated CYTODEX®-3 microcarrier beads were prepared as described by the manufacturer. Approximately 80,000 sterile microcarrier beads were washed, resuspended in EGM, and added to approximately 4.5 million endothelial cells (HDMEC or BAEC). The beads and cells were mixed by gentle swirling, incubated at 37° C. for 6 hr, and then rotated for 24-36 hr on an orbital mixer in a 37° C. oven to generate endothelial cell-loaded microcarrier beads (EC-beads).
FIGS. 1A-1C illustrate a study of human microvascular endothelial cell angiogenesis, according to some embodiments. A microcarrier, in vitro angiogenesis assay, previously designed to investigate bovine pulmonary artery endothelial cell angiogenic behavior in bovine fibrin gels, was modified for the study of human microvascular endothelial cell angiogenesis. The HDMEC were isolated from human neonatal foreskins and used, as described above, and images were captured at various magnifications, where the effect of angiogenic factors on sprout angiogenesis was quantified visually by counting the number and percent of EC-beads with capillary sprouts.
An isotonic 1.5 mg/ml collagen solution was prepared by mixing sterile native bovine type I &III collagen (VITROGEN®, Collagen Biomaterials, Palo Alto, CA) in 5XM199 medium and distilled water. The pH was adjusted to 7.4 using 1N NaOH.
For experiments using RGD peptides, EC-beads were firstly incubated with vary concentrations of peptides for one hour and then were added to the ECM solutions. About 500 EC-beads were then added to the ECM protein solutions, followed by the addition of 0.5 U/ml human thrombin. A 0.3 ml aliquot of each suspension was immediately added to appropriate wells of a 24-well tissue culture plate. After gelation, 1 ml of fresh assay medium (EBM supplemented with 20% normal human serum for HDMEC or EBM supplemented with 10% fetal bovine serum for BAEC) was added to each well.
FIGS. 1B and 1C show how the angiogenic response was monitored visually and recorded by video image capture. Specifically, capillary sprout formation was observed and recorded with a NIKON® Diaphot-TMD inverted microscope (Nikon Inc., Melville, NY), equipped with an incubator housing with a NIKON® NP-2 thermostat and Sheldon #2004 carbon dioxide flow mixer. […] The effect of angiogenic factors on sprout angiogenesis was quantified visually by determining the number and percent of EC-beads with capillary sprouts. 100-200 beads (five random low power fields) in each of triplicate wells were counted for each experimental condition. […]

[3] = molecular target: αvβ3 integrin (Homo sapiens, UniProt P05106+P06756); conditions: cited from earlier work
[4] = single agent, HDMEC in 3D fibrin matrix, stimulated with VEGF and bFGF

Sequence of αvβ3 integrin (P06756 31-889 limits assumed): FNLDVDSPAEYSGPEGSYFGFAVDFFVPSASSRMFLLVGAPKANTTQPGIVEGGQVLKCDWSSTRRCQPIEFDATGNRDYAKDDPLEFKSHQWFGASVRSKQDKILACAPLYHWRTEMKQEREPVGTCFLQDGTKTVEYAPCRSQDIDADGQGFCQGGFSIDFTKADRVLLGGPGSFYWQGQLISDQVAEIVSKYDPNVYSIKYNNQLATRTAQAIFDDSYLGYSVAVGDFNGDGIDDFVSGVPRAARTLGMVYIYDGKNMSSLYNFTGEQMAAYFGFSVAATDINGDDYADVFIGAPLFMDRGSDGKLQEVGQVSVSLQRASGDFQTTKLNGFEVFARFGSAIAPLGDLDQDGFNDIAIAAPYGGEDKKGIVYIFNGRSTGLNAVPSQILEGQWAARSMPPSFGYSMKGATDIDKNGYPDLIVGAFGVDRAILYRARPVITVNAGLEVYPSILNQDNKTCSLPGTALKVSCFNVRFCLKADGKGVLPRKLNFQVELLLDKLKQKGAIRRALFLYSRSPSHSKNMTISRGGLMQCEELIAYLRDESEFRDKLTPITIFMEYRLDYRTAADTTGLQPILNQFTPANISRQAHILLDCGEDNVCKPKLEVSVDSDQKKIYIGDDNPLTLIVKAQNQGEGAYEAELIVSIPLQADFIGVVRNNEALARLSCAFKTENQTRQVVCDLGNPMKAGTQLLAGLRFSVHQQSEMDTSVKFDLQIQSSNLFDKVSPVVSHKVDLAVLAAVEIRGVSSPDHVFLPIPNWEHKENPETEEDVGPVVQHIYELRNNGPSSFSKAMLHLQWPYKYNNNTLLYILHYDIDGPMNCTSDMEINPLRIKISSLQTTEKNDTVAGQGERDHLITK
Sequence of αvβ3 integrin (P06756 891-1048 partner limits assumed): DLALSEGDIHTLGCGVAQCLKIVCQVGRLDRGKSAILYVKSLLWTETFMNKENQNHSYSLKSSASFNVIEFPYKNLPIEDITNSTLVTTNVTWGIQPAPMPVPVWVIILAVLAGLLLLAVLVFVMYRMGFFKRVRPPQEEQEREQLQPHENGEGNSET
Sequence of αvβ3 integrin (P05106 27-788): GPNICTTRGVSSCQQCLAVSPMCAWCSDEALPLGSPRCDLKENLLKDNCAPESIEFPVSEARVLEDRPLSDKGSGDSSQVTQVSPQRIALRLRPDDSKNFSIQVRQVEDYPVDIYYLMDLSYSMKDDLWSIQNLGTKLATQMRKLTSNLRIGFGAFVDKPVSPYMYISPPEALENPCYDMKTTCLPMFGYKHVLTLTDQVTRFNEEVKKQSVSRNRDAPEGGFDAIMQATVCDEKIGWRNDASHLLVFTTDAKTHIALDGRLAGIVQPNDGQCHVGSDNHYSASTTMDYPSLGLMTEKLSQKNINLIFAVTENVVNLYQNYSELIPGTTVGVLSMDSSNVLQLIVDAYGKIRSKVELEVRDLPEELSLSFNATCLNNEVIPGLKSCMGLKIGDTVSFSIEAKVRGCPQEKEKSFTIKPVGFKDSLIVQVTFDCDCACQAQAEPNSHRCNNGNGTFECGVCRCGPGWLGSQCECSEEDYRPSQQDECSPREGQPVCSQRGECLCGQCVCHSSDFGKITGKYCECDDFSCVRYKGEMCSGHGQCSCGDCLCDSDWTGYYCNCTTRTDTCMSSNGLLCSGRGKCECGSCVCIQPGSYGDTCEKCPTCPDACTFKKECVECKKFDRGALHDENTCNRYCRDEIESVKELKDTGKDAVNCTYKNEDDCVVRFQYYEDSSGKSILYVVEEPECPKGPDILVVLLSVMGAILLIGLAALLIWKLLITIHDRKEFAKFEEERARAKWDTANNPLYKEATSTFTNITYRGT
Sequence of VEGF (P15692 207-311 limits assumed): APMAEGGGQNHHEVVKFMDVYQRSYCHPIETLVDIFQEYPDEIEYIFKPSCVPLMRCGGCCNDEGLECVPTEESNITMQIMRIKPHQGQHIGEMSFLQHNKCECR

Substance | increase of survival time [1] | inhibition of sprout angiogenesis [2, 4] | inhibition of sprout angiogenesis ([2]; echistatin alone at 0.1 μg/ml, HDMEC in fibrin) | inhibition of sprout angiogenesis ([2]; echistatin alone, 1 μg/ml to 10 μg/ml, HDMEC in fibrin) | inhibition of sprout angiogenesis ([2]; single agent, HDMEC in 3D fibrin matrix, stimulated with VEGF and bFGF, listed as Echistatin) | αvβ3 integrin antagonism [3]
AVASTATIN® (bevacizumab): human monoclonal antibody to VEGF | more than 30% |  |  |  |  | 
cyclo (Arg-Gly-Asp-d-Phe-Cys) [cRGDfC, reference compound] |  | dose dependently inhibited sprout angiogenesis |  |  |  | 
echistatin (QCESGPCCRNCKFLKEGTICKRARGDDMDDYCNGKTCDCPRNPHKGPAT; listed as Echis carinatus) |  | inhibition of sprout angiogenesis; also recorded: dose dependently inhibited sprout angiogenesis | little inhibitory effect | dose dependently | dose dependently inhibits sprout angiogenesis | potent irreversible αvβ3 integrin antagonist
